Reference: US12077503B2, “Substituted cyclic amides and their use as herbicides” (FMC CORPORATION, priority 2015, dated 2024)

Key:
Assay type in all cases: in vivo
[1] = system: ducksalad (Heteranthera limosa); test: Test B flooded paddy test; details: Heteranthera limosa, 360 h, Flood, 250 g ai/ha; visually evaluated after 13 to 15 d; read-out: Plant response rating, Ducksalad (0 to 100 scale where 0 is no effect and 100 is complete control)
Procedure, shortened: (§1)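 Plants at 2-leaf stage flooded to 3 cm above soil, with compounds applied directly to paddy water and that depth maintained. Plants kept in greenhouse 13–15 d. Visual rating versus controls on a 0 (no effect) to 100 (complete control) scale.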

[2] = system: barnyardgrass (Echinochloa crus-galli); test: Test B flooded paddy test; details: Echinochloa crus-galli, 360 h, Flood, 250 g ai/ha; visually evaluated after 13 to 15 d; read-out: Plant response rating, Barnyardgrass (0 to 100 scale where 0 is no effect and 100 is complete control)
Procedure, shortened: as §1

rice (Oryra sativa) = test: Test B flooded paddy test; details: Oryza sativa, 360 h, Flood, 250 g ai/ha; visually evaluated after 13 to 15 d; read-out: Plant response rating, Rice (0 to 100 scale where 0 is no effect and 100 is complete control)
Procedure, shortened: as §1

[3] = system: sedge, umbrella (small-flower umbrella sedge, Cyperus difformis); test: Test B flooded paddy test; details: Cyperus difformis, 360 h, Flood, 250 g ai/ha; visually evaluated after 13 to 15 d; read-out: Plant response rating, Sedge, Umbrella (0 to 100 scale where 0 is no effect and 100 is complete control)
Procedure, shortened: as §1

[4] = system: ryegrass, Italian (Italian ryegrass, Lolium multiflorum); test: Test A preemergence; details: Lolium multiflorum, pre-emergence, 240 h, Preemergence; for pest or weed control at 31 g/ha: 31 g ai/ha, 0 to 100 scale where 0 is no effect and 100 is complete control, read-out: Ryegrass, Italian plant response rating; for pest or weed control at 125 g/ha: 125 g ai/ha, 0 to 100 scale (0 no effect, 100 complete control), read-out: Plant response rating, Ryegrass, Italian
Procedure, shortened: (§2)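 Seeds sprayed preemergence with a directed soil spray, or plants at 2 to 10 cm height and one- to two-leaf stage sprayed postemergence, with test chemicals in a non-phytotoxic solvent mixture containing surfactant, in loam soil–sand blend. Injury rated visually against untreated controls after about 10 d in greenhouse, 0 (no effect) to 100 (complete control).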

[5] = system: giant foxtail (Setaria faberii); test: Test A preemergence; details: Setaria faberi, pre-emergence, 240 h, Preemergence; for pest or weed control at 31 g/ha: 31 g ai/ha, 0 to 100 scale where 0 is no effect and 100 is complete control, read-out: Foxtail, Giant plant response rating; for pest or weed control at 125 g/ha: 125 g ai/ha, 0 to 100 scale (0 no effect, 100 complete control), read-out: Plant response rating, Foxtail, Giant
Procedure, shortened: as §2

[6] = system: pigweed (Amaranthus retroflexus); test: Test A preemergence; details: Amaranthus retroflexus, pre-emergence, 240 h, Preemergence; for pest or weed control at 31 g/ha: 31 g ai/ha, 0 to 100 scale where 0 is no effect and 100 is complete control, read-out: Pigweed plant response rating; for pest or weed control at 125 g/ha: 125 g ai/ha, 0 to 100 scale (0 no effect, 100 complete control), read-out: Plant response rating, Pigweed
[7] = system: barnyardgrass (Echinochloa crus-galli); test: Test A preemergence; details: Echinochloa crus-galli, pre-emergence, 240 h, Preemergence; for pest or weed control at 31 g/ha: 31 g ai/ha, 0 to 100 scale where 0 is no effect and 100 is complete control, read-out: Barnyardgrass plant response rating; for pest or weed control at 125 g/ha: 125 g ai/ha, 0 to 100 scale (0 no effect, 100 complete control), read-out: Plant response rating, Barnyardgrass
Procedure, shortened: as §2

Kochia (Kochia scoparia) [8] = test: Test A preemergence; details: Bassia scoparia, pre-emergence, 240 h, Preemergence; for pest or weed control at 31 g/ha: 31 g ai/ha, 0 to 100 scale where 0 is no effect and 100 is complete control, read-out: Kochia plant response rating; for pest or weed control at 125 g/ha: 125 g ai/ha, 0 to 100 scale (0 no effect, 100 complete control), read-out: Plant response rating, Kochia
Procedure, shortened: as §2

[9] = system: ragweed (common ragweed, Ambrosia elatior); test: Test A preemergence; details: Ambrosia artemisiifolia, pre-emergence, 240 h, Preemergence; for pest or weed control at 31 g/ha: 31 g ai/ha, 0 to 100 scale where 0 is no effect and 100 is complete control, read-out: Ragweed plant response rating; for pest or weed control at 125 g/ha: 125 g ai/ha, 0 to 100 scale (0 no effect, 100 complete control), read-out: Plant response rating, Ragweed
Procedure, shortened: as §2

[10] = system: ryegrass, Italian (Italian ryegrass, Lolium multiflorum); test: Test A postemergence; details: Lolium multiflorum, post-emergence, 240 h, Postemergence, read-out: Ryegrass, Italian plant response rating (0 to 100 scale); for pest or weed control at 125 g/ha: 125 g ai/ha, visual rating about 10 d after treatment; for pest or weed control at 31 g/ha: 31 g ai/ha, 0 is no effect, 100 is complete control
Procedure, shortened: as §2

[11] = system: giant foxtail (Setaria faberii); test: Test A postemergence; details: Setaria faberi, post-emergence, 240 h, Postemergence, read-out: Foxtail, Giant plant response rating (0 to 100 scale); for pest or weed control at 125 g/ha: 125 g ai/ha, visual rating about 10 d after treatment; for pest or weed control at 31 g/ha: 31 g ai/ha, 0 is no effect, 100 is complete control
Procedure, shortened: as §2

[12] = system: blackgrass (Alopecurus myosuroides); test: Test A postemergence; details: Alopecurus myosuroides, post-emergence, 240 h, Postemergence, read-out: Blackgrass plant response rating (0 to 100 scale); for pest or weed control at 125 g/ha: 125 g ai/ha, visual rating about 10 d after treatment; for pest or weed control at 31 g/ha: 31 g ai/ha, 0 is no effect, 100 is complete control
Procedure, shortened: as §2

[13] = system: pigweed (Amaranthus retroflexus); test: Test A postemergence; details: Amaranthus retroflexus, post-emergence, 240 h, Postemergence, read-out: Pigweed plant response rating (0 to 100 scale); for pest or weed control at 125 g/ha: 125 g ai/ha, visual rating about 10 d after treatment; for pest or weed control at 31 g/ha: 31 g ai/ha, 0 is no effect, 100 is complete control
Procedure, shortened: as §2

[14] = system: barnyardgrass (Echinochloa crus-galli); test: Test A postemergence; details: Echinochloa crus-galli, post-emergence, 240 h, Postemergence; for pest or weed control at 125 g/ha: 125 g ai/ha, visual rating about 10 d after treatment, read-out: Barnyardgrass plant response rating (0 to 100 scale, 0 no effect, 100 complete control); for pest or weed control at 31 g/ha: 31 g ai/ha, 0 is no effect, 100 is complete control, read-out: Barnyardgrass plant response rating (0 to 100 scale)
Procedure, shortened: as §2

Kochia (Kochia scoparia) [15] = test: Test A postemergence; details: Bassia scoparia, post-emergence, 240 h, Postemergence, read-out: Kochia plant response rating (0 to 100 scale); for pest or weed control at 125 g/ha: 125 g ai/ha, visual rating about 10 d after treatment; for pest or weed control at 31 g/ha: 31 g ai/ha, 0 is no effect, 100 is complete control
Procedure, shortened: as §2

[16] = system: ragweed (common ragweed, Ambrosia elatior); test: Test A postemergence; details: Ambrosia artemisiifolia, post-emergence, 240 h, Postemergence, read-out: Ragweed plant response rating (0 to 100 scale); for pest or weed control at 125 g/ha: 125 g ai/ha, visual rating about 10 d after treatment; for pest or weed control at 31 g/ha: 31 g ai/ha, 0 is no effect, 100 is complete control
Procedure, shortened: as §2

corn (Zea mays) = test: Test A postemergence; details: Zea mays, post-emergence, 240 h, Postemergence, read-out: Corn plant response rating (0 to 100 scale); for plant injury at 125 g/ha: 125 g ai/ha, visual rating about 10 d after treatment; for plant injury at 31 g/ha: 31 g ai/ha, 0 is no effect, 100 is complete control
Procedure, shortened: as §2

[17] = system: wheat (Triticum aestivum); test: Test A postemergence; details: Triticum aestivum, post-emergence, 240 h, Postemergence, read-out: Wheat plant response rating (0 to 100 scale); for plant injury at 125 g/ha: 125 g ai/ha, visual rating about 10 d after treatment; for plant injury at 31 g/ha: 31 g ai/ha, 0 is no effect, 100 is complete control
Procedure, shortened: as §2

| Structure (SMILES) | pest or weed control at 250 g/ha [1] [%] | pest or weed control at 250 g/ha [2] [%] | pest or weed control at 250 g/ha (rice (Oryra sativa)) [%] | pest or weed control at 250 g/ha [3] [%] | pest or weed control at 31 g/ha [4] [%] | pest or weed control at 125 g/ha [4] [%] | pest or weed control at 31 g/ha [5] [%] | pest or weed control at 125 g/ha [5] [%] | pest or weed control at 31 g/ha [6] [%] | pest or weed control at 125 g/ha [6] [%] | pest or weed control at 31 g/ha [7] [%] | pest or weed control at 125 g/ha [7] [%] | pest or weed control at 31 g/ha (Kochia (Kochia scoparia) [8]) [%] | pest or weed control at 125 g/ha (Kochia (Kochia scoparia) [8]) [%] | pest or weed control at 31 g/ha [9] [%] | pest or weed control at 125 g/ha [9] [%] | pest or weed control at 125 g/ha [10] [%] | pest or weed control at 31 g/ha [10] [%] | pest or weed control at 125 g/ha [11] [%] | pest or weed control at 31 g/ha [11] [%] | also measured |
| --- | --- | --- | --- | --- | --- | --- | --- | --- | --- | --- | --- | --- | --- | --- | --- | --- | --- | --- | --- | --- | --- |
| COc1ccc([C@H]2CN(C)C(=O)[C@@H]2C(=O)Nc2ccccc2F)cc1 [Compound 1342] | 85 | 50 | 0 | 0 | 0 | 0 | 90 | 100 | 0 | 20 | 60 | 90 | 0 | 0 | 0 | 0 | 0 | 0 | 70 | 20 | pest or weed control at 125 g/ha [12]: 0%; pest or weed control at 31 g/ha [12]: 0%; pest or weed control at 125 g/ha [13]: 0%; pest or weed control at 31 g/ha [13]: 0%; pest or weed control at 125 g/ha [14]: 90%; pest or weed control at 31 g/ha [14]: 20%; pest or weed control at 125 g/ha (Kochia (Kochia scoparia) [15]): 20%; pest or weed control at 31 g/ha (Kochia (Kochia scoparia) [15]): 0%; pest or weed control at 125 g/ha [16]: 0%; pest or weed control at 31 g/ha [16]: 0%; plant injury at 125 g/ha (corn (Zea mays)): 0%; plant injury at 31 g/ha (corn (Zea mays)): 0%; plant injury at 125 g/ha [17]: 0%; plant injury at 31 g/ha [17]: 0% |
| CN1C[C@H](c2ccc3c(c2)OC(F)(F)O3)[C@@H](C(=O)Nc2cccnc2F)C1=O [Compound 1346] | 90 | 90 | 0 | 0 | 10 | 30 | 90 | 100 | 80 | 90 | 40 | 90 | 10 | 80 | 0 | 90 | 20 | 0 | 90 | 60 | pest or weed control at 125 g/ha [12]: 20%; pest or weed control at 31 g/ha [12]: 30%; pest or weed control at 125 g/ha [13]: 20%; pest or weed control at 31 g/ha [13]: 0%; pest or weed control at 125 g/ha [14]: 80%; pest or weed control at 31 g/ha [14]: 60%; pest or weed control at 125 g/ha (Kochia (Kochia scoparia) [15]): 30%; pest or weed control at 31 g/ha (Kochia (Kochia scoparia) [15]): 0%; pest or weed control at 125 g/ha [16]: 0%; pest or weed control at 31 g/ha [16]: 0%; plant injury at 125 g/ha (corn (Zea mays)): 40%; plant injury at 31 g/ha (corn (Zea mays)): 0%; plant injury at 125 g/ha [17]: 60%; plant injury at 31 g/ha [17]: 30% |
| CN1C[C@H](c2ccc3c(c2)OC(F)(F)O3)[C@@H](C(=O)Nc2ccccc2C(F)(F)F)C1=O [Compound 1352] | 70 | 60 | 0 | 0 | 0 | 40 | 100 | 100 | 0 | 80 | 80 | 90 | 20 | 60 | 0 | 30 | 0 | 0 | 80 | 60 | pest or weed control at 125 g/ha [12]: 30%; pest or weed control at 31 g/ha [12]: 0%; pest or weed control at 125 g/ha [13]: 0%; pest or weed control at 31 g/ha [13]: 0%; pest or weed control at 125 g/ha [14]: 60%; pest or weed control at 31 g/ha [14]: 60%; pest or weed control at 125 g/ha (Kochia (Kochia scoparia) [15]): 0%; pest or weed control at 31 g/ha (Kochia (Kochia scoparia) [15]): 0%; pest or weed control at 125 g/ha [16]: 0%; pest or weed control at 31 g/ha [16]: 0%; plant injury at 125 g/ha (corn (Zea mays)): 0%; plant injury at 31 g/ha (corn (Zea mays)): 0%; plant injury at 125 g/ha [17]: 20%; plant injury at 31 g/ha [17]: 0% |
